# Several values for one entry are separate records, joined by “and”; a condition that tells them apart may be missing. Equal entries are not always repeated.
# How the values were obtained:
# Experiment in all cases: Greenhouse test, pre-emergence treatment
# VIOAR = assay type: in vivo, Viola arvensis; conditions: use rate 2 g ai/ha, 20 DAT
# Source text: The culture containers used were plastic flowerpots containing loamy sand with approximately 3.0% of humus as the substrate. The seeds of the test plants were sown separately for each species.
# For the pre-emergence treatment, the active ingredients, which had been suspended or emulsified in water, were applied directly after sowing by means of finely distributing nozzles. The containers were irrigated gently to promote germination and growth and subsequently covered with transparent plastic hoods until the plants had rooted. This cover caused uniform germination of the test plants, unless this had been impaired by the active ingredients.
# Depending on the species, the plants were kept at 10-25° C. or 20-35° C., respectively.
# The test period extended over 2 to 4 weeks. During this time, the plants were tended, and their response to the individual treatments was evaluated.
# Evaluation was carried out using a scale from 0 to 100. 100 means no emergence of the plants, or complete destruction of at least the aerial moieties, and 0 means no damage, or normal course of growth. A moderate herbicidal activity is given at values of at least 60, a good herbicidal activity is given at values of at least 70, and a very good herbicidal activity is given at values of at least 85.
# The respective stated components a and b, and if appropriate, c were formulated as a 10% by weight strength emulsion concentrate and, with addition of the amount of solvent system, introduced into the spray liquor used for applying the active compound.
# In the examples, the solvent used was water.
# In the examples below, using the method of S. R. Colby (1967) “Calculating synergistic and antagonistic responses of herbicide combinations”, Weeds 15, p. 22ff., the value E, which is expected if the activity of the individual active compounds is only additive, was calculated. E=X+Y−(X·Y/100) where • X=percent activity using active compound a at an application rate A; • Y=percent activity using active compound b at an application rate B; • E=expected activity (in %) by a+b at application rates A+B.
# If the value found experimentally is higher than the value E calculated according to Colby, a synergistic effect is present.
# LOLMU = assay type: in vivo, Lolium multiflorum; conditions: Lolium multiflorum, pre-emergence, 480 h, pre-emergence, 20 DAT, read-out: observed % activity 20 DAT
# Procedure, shortened: (§1)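 Damage was rated on a 0-100 scale, with 100 meaning no emergence or full destruction of aerial parts. Observed combination effects were set against the additive Colby expectation E=X+Y−(X·Y/100). Spray liquor was water-based, from 10% emulsion concentrates, applied pre-emergence right after sowing in loamy sand (about 3.0% humus). Plants were held at 10-25 °C or 20-35 °C for 2 to 4 weeks.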
# ALOMY = assay type: in vivo, Alopecurus myosuroides; conditions: pre-emergence, pre-emergence, 20 DAT
# Procedure, shortened: as §1
# GERPU = assay type: in vivo, Geranium pusillum; conditions: Geranium pusillum, pre-emergence, 480 h, pre-emergence, 20 DAT, read-out: observed % activity 20 DAT
# Procedure, shortened: as §1
# SETFA = assay type: in vivo, Setaria faberi; conditions: 20 DAT
# Procedure, shortened: as §1
# POLCO = assay type: in vivo, Polygonum convolvulus; conditions: pre-emergence, 20 DAT
# Procedure, shortened: as §1
# PHACA = assay type: in vivo, Phalaris canariensis; conditions: Phalaris canariensis, pre-emergence, 480 h, pre-emergence, 20 DAT, read-out: observed % activity 20 DAT
# Procedure, shortened: as §1
# ECHCG = assay type: in vivo, Echinocloa crus-galli; conditions: Echinochloa crus-galli, 480 h, 20 DAT, read-out: observed % activity 20 DAT
# Procedure, shortened: as §1
# KCHSC = assay type: in vivo, Kochia scoparia; conditions: pre-emergence, 20 DAT
# Procedure, shortened: as §1
compound,measurement,setting,value
"CC(C)(F)c1nc(N)nc(Nc2c(F)c(F)cc(F)c2F)n1 [compound 2, 6-(1-Fluoro-1-methyl-ethyl)-N4-(2,3,5,6-tetrafluorophenyl)-1,3,5-triazine-2,4-diamine]",observed % activity 20 DAT,VIOAR,50%
same,inhibition at 1 g/ha,"LOLMU; LOLMU, use rate 1 g ai/ha",40%
same,inhibition at 2 g/ha,"LOLMU; LOLMU, use rate 2 g ai/ha",80%
same,inhibition at 4 g/ha,"LOLMU; LOLMU, use rate 4 g ai/ha",95%
same,pest or weed control at 1 g/ha,LOLMU; use rate 1 g ai/ha,20%
same,pest or weed control at 2 g/ha,LOLMU; use rate 2 g ai/ha,80%
same,pest or weed control at 4 g/ha,LOLMU; use rate 4 g ai/ha,95%
same,inhibition at 1 g/ha,"ALOMY; Alopecurus myosuroides, 480 h, ALOMY, use rate 1 g ai/ha, read-out: observed % activity 20 DAT",60%
same,inhibition at 2 g/ha,"ALOMY; Alopecurus myosuroides, 480 h, ALOMY, use rate 2 g ai/ha, read-out: observed % activity 20 DAT",70%
same,inhibition at 4 g/ha,"ALOMY; Alopecurus myosuroides, 480 h, ALOMY, use rate 4 g ai/ha, read-out: observed % activity 20 DAT",90%
same,pest or weed control at 1 g/ha,"ALOMY; Alopecurus myosuroides, 480 h, use rate 1 g ai/ha, read-out: observed % activity 20 DAT",45%
same,pest or weed control at 2 g/ha,"ALOMY; Alopecurus myosuroides, 480 h, use rate 2 g ai/ha, read-out: observed % activity 20 DAT",75%
same,pest or weed control at 4 g/ha,"ALOMY; Alopecurus myosuroides, 480 h, use rate 4 g ai/ha, read-out: observed % activity 20 DAT",90%
same,observed % activity 20 DAT,"ALOMY; ALOMY, use rate 4 g ai/ha",95%
same,observed % activity 20 DAT,"ALOMY; ALOMY, use rate 8 g ai/ha",50% and 80% and 95%
same,pest or weed control at 1 g/ha,GERPU; use rate 1 g ai/ha,0%
same,pest or weed control at 2 g/ha,GERPU; use rate 2 g ai/ha,0%
same,inhibition at 1 g/ha,"SETFA; Setaria faberi, 480 h, SETFA, use rate 1 g ai/ha, read-out: observed % activity 20 DAT",80%
same,inhibition at 2 g/ha,"SETFA; Setaria faberi, 480 h, SETFA, use rate 2 g ai/ha, read-out: observed % activity 20 DAT",95%
same,inhibition at 4 g/ha,"SETFA; Setaria faberi, 480 h, SETFA, use rate 4 g ai/ha, read-out: observed % activity 20 DAT",95%
same,observed % activity 20 DAT,SETFA; use rate 2 g ai/ha,75% and 65%
same,pest or weed control at 1 g/ha,"POLCO; Fallopia convolvulus, 480 h, use rate 1 g ai/ha, read-out: observed % activity 20 DAT",60%
same,pest or weed control at 2 g/ha,"POLCO; Fallopia convolvulus, 480 h, use rate 2 g ai/ha, read-out: observed % activity 20 DAT",70%
same,inhibition at 2 g/ha,"POLCO; Fallopia convolvulus, 480 h, POLCO, use rate 2 g ai/ha, read-out: observed % activity 20 DAT",70%
same,inhibition at 4 g/ha,"POLCO; Fallopia convolvulus, 480 h, POLCO, use rate 4 g ai/ha, read-out: observed % activity 20 DAT",95%
same,observed % activity 20 DAT,"POLCO; POLCO, use rate 1 g ai/ha",15%
same,inhibition at 1 g/ha,"PHACA; PHACA, use rate 1 g ai/ha",20%
same,inhibition at 2 g/ha,"PHACA; PHACA, use rate 2 g ai/ha",70%
same,pest or weed control at 1 g/ha,PHACA; use rate 1 g ai/ha,20%
same,pest or weed control at 4 g/ha,PHACA; use rate 4 g ai/ha,95%
same,pest or weed control at 8 g/ha,PHACA; use rate 8 g ai/ha,85%
same,inhibition at 1 g/ha,"ECHCG; ECHCG, use rate 1 g ai/ha",65%
same,inhibition at 2 g/ha,"ECHCG; ECHCG, use rate 2 g ai/ha",98%
same,pest or weed control at 1 g/ha,ECHCG; use rate 1 g ai/ha,65%
same,pest or weed control at 1 g/ha,"KCHSC; Bassia scoparia, 480 h, use rate 1 g ai/ha, read-out: observed % activity 20 DAT",0%
same,pest or weed control at 2 g/ha,"KCHSC; Bassia scoparia, 480 h, use rate 2 g ai/ha, read-out: observed % activity 20 DAT",50%
same,inhibition at 1 g/ha,"KCHSC; Bassia scoparia, 480 h, KCHSC, use rate 1 g ai/ha, read-out: observed % activity 20 DAT",45%
same,inhibition at 2 g/ha,"KCHSC; Bassia scoparia, 480 h, KCHSC, use rate 2 g ai/ha, read-out: observed % activity 20 DAT",80%
same,inhibition at 4 g/ha,"KCHSC; Bassia scoparia, 480 h, KCHSC, use rate 4 g ai/ha, read-out: observed % activity 20 DAT",90%
same,inhibition at 8 g/ha,"KCHSC; Bassia scoparia, 480 h, KCHSC, use rate 8 g ai/ha, read-out: observed % activity 20 DAT",80%
same,observed % activity 20 DAT,"KCHSC; KCHSC, use rate 8 g ai/ha",95%

# Source: patent publication US9999222B2, “Herbicidal combination comprising azines” (BASF SE, priority 2014, dated 2018)
